Data reported in patent US8865721B2, “Delta opioid receptor agonist compounds” (priority 2001, dated 2014).
“Also recorded” adds a separate entry of the source. Like-named read-outs stand apart in the source and are kept apart here.

Tests used:
[1] = tested on: male CD-1 mice, electrically stimulated ejaculation; experiment: electroejaculation test in conscious male mice (bipolar rectal probe); format: in vivo, mouse; conditions: for Effective Dose / Ejaculation Inhibition % / Max. ejaculation Inhibition / Optimal Dose: male mice; for Effective Dose / Ejaculation Inhibition %: oral; for Ejaculation Inhibition %: at the effective dose; for Max. ejaculation Inhibition / Optimal Dose: subcutaneous injection; for Max. ejaculation Inhibition: at the optimal dose; for Optimal Dose: dose giving max. ejaculation inhibition
Description: To investigate the efficacy of delta opioid receptor agonists as a treatment for premature ejaculation, intact conscious male mice were electrically stimulated subsequent to the administration of a delta opioid receptor agonist to determine if a delay in ejaculation was observed when compared to administration of a placebo
Male, CD-1 mice (20-30 g) were housed in groups of ten (10) in Plexiglas® chambers with food and water available before any procedure. Animals were maintained on a 12 hour light/dark cycle in a temperature-controlled animal colony. Studies were carried out in accordance with the Guide for the Care and Use of Laboratory animals as adopted and promulgated by the National Institutes of Health.
Specifically, the bipolar electrode probe is an approximately 5 cm long tube having an outer diameter of approximately 0.25 cm with an inner diameter of approximately 0.08. In the center lumen of the elongated tubular body 12 are embedded cathode 16 and anode 18, which are formed of a conductive material, preferably platinum. The cathode 16 and anode 18 are connected at one end to external power supplying means (not shown). Anode 18 extends at the other end all the way to one extremity of the elongated body 12 and forming an anode terminal 22 at such extremity. Cathode 16 only extends to a middle portion of the elongated body 12 and forming a cathode terminal 20 at such middle portion. The cathode terminal 20 is preferably positioned away from the anode terminal 22, at a distance of about 0.5 cm.
The testing delta opioid receptor agonist (SNC-80) was purchased from Tocris Cookson, Inc., Ellisville, Mo., USA, and dissolved in 5% dextrose injection solution. An equimolar amount of aqueous hydrochloric acid was added when the manufacturer packaged the compound in its base form. The placebo was 5% dextrose alone. Each mouse was injected subcutaneously with […] of the SNC-80 compound or with 10 mg/kg of a placebo. 10 minutes after the injection, the test mouse was subjected to electrostimulation. Ten mice were tested for each dose level, the order of each mouse receiving different doses was blinded and in a random manner.
During the testing the mouse was restrained in a cone bag with rear legs extending from the bag. Excess fecal matter was removed from the rectum and the above-discussed lubricated bipolar electrode was inserted approximately 2.5 cm into the rectum. […] The stimulation regime included 4 stimulating events for each voltage lasting 2 seconds with a rest period of 2 seconds between stimulating events until ejaculation occurred or the terminal voltage of 8 volts was reached. A white coagulum ejaculate from the penis indicates a successful ejaculation.
For the electroejaculation test, dose-response lines were constructed as an accumulated ejaculation at a specified voltage. A minimum of 10 mice was used at each dose level. Each dose response was the average of two to three independent experiments. Students' t-test was used to assess unpaired comparison, with […] indicating significance.
Testing was conducted on mice injected with SNC-80 or a buffer vehicle for the control group. […] Each mouse was subjected to electroejaculation at 40 Hz (starting at 3 volts with a gradual increase to 8 volts by increments of 0.5 volts) approximately 10 minutes after subcutaneous administration of SNC-80 at different doses of 0, 0.1, 0.3 and 1 mg/kg. A minimum of 10 mice were used at each dose level. Each does response was the average of two to three independent experiments±SEM.
To determine if SNC-80 inhibits the ejaculation via specific binding to delta opioid receptor, the effect of SNC-80 on ejaculation was tested against the delta opioid selective antagonist naltrindole (NTI). Subcutaneous injections of a control vehicle (CTL), 0.5 mg/kg SNC-80, 0.5 mg/kg SNC-80 plus 0.1 mg/kg of NTI and 0.1 mg/kg of NTI were administered to the mice. A minimum of 10 mice was utilized for each dose level. […]

μ opioid receptor = μ opioid receptor (Homo sapiens, UniProt P35372); experiment: radio-ligand competition binding assay, μ
κ opioid receptor = κ opioid receptor (Homo sapiens, UniProt P41145); experiment: radio-ligand competition binding assay, κ
delta opioid receptor = delta opioid receptor (Homo sapiens, UniProt P41143); experiment: radio-ligand competition binding assay, δ
mouse vas deferens [2] = experiment: in vitro inhibition of electrically stimulated contraction of mouse vas deferens in tissue bath
mouse vas deferens [3] = conditions: background statement; cited from earlier work
[4] = radio-ligand competition binding per U.S. Pat. Nos. 5,985,880 and 5,807,858, read-out: κ binding affinity
[5] = radio-ligand competition binding per U.S. Pat. Nos. 5,985,880 and 5,807,858, read-out: δ binding affinity

| Compound | Effective Dose [1] [mg/kg] | Ejaculation Inhibition % [1] [%] | Max. ejaculation Inhibition [1] [%] | Optimal Dose [1] [mg/kg] | EC50 (mouse vas deferens [2]) [nM] | other results |
| --- | --- | --- | --- | --- | --- | --- |
| CCN(CC)C(=O)c1ccc([C@H](c2cccc(OC)c2)N2C[C@@H](C)N(Cc3ccc(F)cc3)C[C@@H]2C)cc1 [Example 29, 4-((alpha-R)-alpha-((2S,5R)-2,5-Dimethyl-4-(4-fluorobenzyl)-1-piperazinyl)-3-methoxybenzyl)-N,N-diethylbenzamide] | 3 | 38 | – | – | – | – |
| C=CCN1C[C@@H](C)N([C@H](c2ccc(S(=O)(=O)N(C)C)cc2)c2cccc(O)c2)C[C@@H]1C [Example 40, 4-[(R)-((2R,5S)-4-Allyl-2,5-dimethylpiperazin-1-yl)(3-hydroxyphenyl)methyl]-N,N-dimethylbenzenesulfonamide] | 0.3 | 50 | – | – | – | – |
| CCN(CC)C(=O)c1cccc([C@H](c2cccc(O)c2)N2C[C@@H](C)N(Cc3cccc(O)c3)C[C@@H]2C)c1 [Example 17, N,N-Diethyl-3-((R)-((2S,5R)-2,5-dimethyl-4-(3-hydroxybenzyl)piperazin-1-yl)(3-hydroxyphenyl)methyl)benzamide] | – | – | 50 | 1 | 2.9 | Ki (μ opioid receptor): 1.28 nM; Ki (κ opioid receptor; [4]): 20.9 nM; Ki (delta opioid receptor; [5]): 0.66 nM |
| CCN(CC)C(=O)c1ccc([C@H](c2cccc(OC)c2)N2C[C@@H](C)N(Cc3ccccc3)C[C@@H]2C)cc1 [Example 38] | 3 | 33 | – | – | – | – |
| CCN(CC)C(=O)c1ccc([C@H](c2cccc(O)c2)N2C[C@@H](C)N(Cc3ccc(F)cc3)C[C@@H]2C)cc1 [Example 11, 4-((alpha-R)-alpha-((2S,5R)-2,5-Dimethyl-4-(4-fluorobenzyl)-1-piperazinyl)-3-hydroxybenzyl)-N,N-diethylbenzamide] | – | – | 30 | 5 | 2.8 | Ki (μ opioid receptor): 27.1 nM; Ki (κ opioid receptor; [4]): > 100 nM; Ki (delta opioid receptor; [5]): 1.23 nM |
| CCN(CC)C(=O)c1ccc([C@H](c2ccccc2)N2C[C@@H](C)N(Cc3ccc(O)cc3)C[C@@H]2C)cc1 [Example 37, 4-((alpha-S)-alpha-((2S,5R)-2,5-Dimethyl-4-(4-hydroxybenzyl)-1-piperazinyl)-benzyl)-N,N-diethylbenzamide] | 3 | 50 | – | – | – | – |
| C=CCN1C[C@H](C)N([C@H](c2ccc(C(=O)N(CC)CC)cc2)c2cccc(OC)c2)C[C@H]1C [SNC-80, reference compound] | – | – | – | – | – | contraction of mouse vas deferens smooth muscle in vitro (mouse vas deferens [3]): block the contraction of mouse vas deferens smooth muscle in vitro; inhibitory effect on ejaculation at reduced dose ([1]; 0.1 mg/kg subcutaneous, 40 Hz, FIG. 3): inhibitory effect diminished; inhibitory effect on ejaculation with co-injected antagonist ([1]; 0.5 mg/kg SNC-80 plus 0.1 mg/kg NTI subcutaneous, 35 Hz, FIG. 4): abolished; also recorded: inhibitory effect was blocked; reduction of ejaculation (factor) ([1]; 0.5 mg/kg subcutaneous, 35 Hz, 10 minutes after injection, FIG. 4): at least 2; occurrence of ejaculation versus control group ([1]; 1 mg/kg subcutaneous, 40 Hz, 10 minutes after injection, FIG. 3): significantly reduced the occurrence of ejaculation |
| CCN(CC)C(=O)c1ccc([C@H](c2ccccc2)N2C[C@H](C)N(Cc3cccc(F)c3)C[C@H]2C)cc1 [Example 41, 4-((alpha-S)-alpha-((2R,5S)-2,5-Dimethyl-4-(3-fluorobenzyl)-1-piperazinyl)benzyl)-N,N-diethylbenzamide] | 0.4 | 75 | – | – | – | – |
| CCN(CC)C(=O)c1ccc([C@H](c2cccc(OC)c2)N2C[C@@H](C)N(Cc3ccccc3F)C[C@@H]2C)cc1 [Example 39, 4-((alpha-R)-alpha-((2S,5R)-2,5-Dimethyl-4-(2-fluorobenzyl)-1-piperazinyl)-3-methoxybenzyl)-N,N-diethylbenzamide] | 10 | 50 | – | – | – | – |
| CCN(CC)C(=O)c1ccc([C@H](c2cccc(OCC(=O)O)c2)N2C[C@@H](C)N(Cc3ccccc3)C[C@@H]2C)cc1 [Example 15, 3-((alpha-R)-alpha-((2S,5R)-4-Benzyl-2,5-dimethyl-1-piperazinyl)-4-(diethylaminocarbonyl)benzyl)phenoxyacetic acid] | 3 | 66 | – | – | – | – |
| Oc1ccc2c3c1O[C@H]1c4[nH]c5ccccc5c4C[C@@]4(O)[C@@H](C2)N(CC2CC2)CC[C@]314 [NTI, naltrindole, reference compound] | – | – | – | – | – | ejaculation response, antagonist alone ([1]; 0.1 mg/kg subcutaneous, 35 Hz, FIG. 4): did not affect the ejaculation response |
| CCN(CC)C(=O)c1ccc([C@H](c2cccc(O)c2)N2C[C@@H](C)N(Cc3ccccc3)C[C@@H]2C)cc1 [Example 12, 4-((alpha-R)-alpha-((2S,5R)-4-Benzyl-2,5-dimethyl-1-piperazinyl)-3-hydroxybenzyl)-N,N-diethylbenzamide] | – | – | 28 | 5 | 4.4 | Ki (μ opioid receptor): 1.45 nM; Ki (κ opioid receptor; [4]): 68.7 nM; Ki (delta opioid receptor; [5]): 0.123 nM |
| CCN(CC)C(=O)c1ccc([C@H](c2cccc(O)c2)N2C[C@@H](C)N(Cc3ccc(C(=O)O)cc3)C[C@@H]2C)cc1 [Example 13, 4-{(2R,5S)-4-[(R)-(4-Diethylcarbamoylphenyl)(3-hydroxyphenyl)methyl]-2,5-dimethylpiperazin-1-ylmethyl)benzoic acid] | – | – | 50 | 5 | 21.2 | Ki (μ opioid receptor): 3470 nM; Ki (κ opioid receptor): > 100 nM; Ki (delta opioid receptor): 5.69 nM |
| 4-(alpha-R)-alpha-((2S,5R)-4-(Cyclopropylmethyl)-2,5-dimethyl-1-piperazinyl)-3-hydroxybenzyl)-N,N-diethylbenzamide [Example 35] | 0.3 | 60 | – | – | – | – |
| CCN(CC)C(=O)c1ccc([C@H](c2cccc(O)c2)N2C[C@@H](C)N(Cc3cccc(F)c3)C[C@@H]2C)cc1 [Example 36, 4-((alpha-R)-alpha-((2S,5R)-2,5-Dimethyl-4-(3-fluorobenzyl)-1-piperazinyl)-3-hydroxybenzyl)-N,N-diethylbenzamide] | 3 | 60 | – | – | – | – |
| C=CCN1C[C@H](C)N([C@H](c2ccc(C(=O)N(CC)CC)cc2)c2cccc(OCC(=O)O)c2)C[C@H]1C [Example 14, 3-((alpha-R)-alpha-((2S,5R)-4-Allyl-2,5-dimethyl-1-piperazinyl)-4-(diethylamino-carbonyl)benzyl)phenoxyacetic acid] | 0.01 | 45 | 35 | 10 | 7.2 | Ki (μ opioid receptor; radio-ligand competition binding per U.S. Pat. Nos. 5,985,880 and 5,807,858, read-out: μ binding affinity): 162 nM; Ki (κ opioid receptor): > 100 nM; Ki (delta opioid receptor): 11.1 nM |
